Molecular target: BTK (Homo sapiens, UniProt Q06187)
Test: biochemical
Settings: read-out: BTK inhibition (%), 0.75 uM BTK, […] probe 3l, 15 min preincubation

Chain of BTK (Q06187 402-655 limits assumed): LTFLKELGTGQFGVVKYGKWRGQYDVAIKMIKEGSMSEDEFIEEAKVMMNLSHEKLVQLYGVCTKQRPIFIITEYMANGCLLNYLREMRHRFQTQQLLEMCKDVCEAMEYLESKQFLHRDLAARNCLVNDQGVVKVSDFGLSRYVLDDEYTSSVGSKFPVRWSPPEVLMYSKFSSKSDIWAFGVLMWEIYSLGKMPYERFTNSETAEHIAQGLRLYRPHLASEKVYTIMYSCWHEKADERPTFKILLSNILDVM

Row | Structure (SMILES) | inhibition at 10 µM
1 | COC(=O)/C=C/C(=O)OC [PCM-0090553] | 1.4%
2 | N=C(N)c1ccc2cc(OC(=O)c3ccc(N=C(N)N)cc3)ccc2c1 [PCM-0095060] | -1.6%
3 | Cc1noc(-c2ccc(CSCCC(=O)O)cc2)c1NC(=O)OC(C)c1ccccc1Cl (stereo not shown) [PCM-0094905] | -21%
4 | Cc1cc(C(=O)NOCCO)c(Nc2ccc(I)cc2F)n(C)c1=O [PCM-0095312] | 2.1%
5 | O=C(Nc1ncc(SCCN2CCCC2)s1)[C@]1(c2ccc(S(=O)(=O)C3CC3)cc2)C[C@H]1C1CCCCC1 [PCM-0095206] | -8.6%
6 | C[C@H](Nc1ncnc2nc[nH]c12)c1cc2cccc(Cl)c2c(=O)n1-c1ccccc1 [PCM-0095570] | 2.1%
7 | O=c1c2ccccc2nc(/C=C/c2cccnc2)n1Cc1ccccc1 [PCM-0102024] | 0%
8 | Cc1cc(C)c2c(c1)[C@@H](N(Cc1cc(C(F)(F)F)cc(C(F)(F)F)c1)c1nnn(C)n1)CCCN2CC1CCC(C(=O)O)CC1 (stereo partly shown) [PCM-0095426] | 16.3%
9 | Cc1cccc(-c2[nH]c(C(C)(C)C)nc2-c2ccc3c(c2)OCO3)n1 [PCM-0095234] | 9.3%
10 | Cc1ccccc1-n1c(Cn2ncc3c(N)ncnc32)nc2cccc(C)c2c1=O [PCM-0095248] | 4.1%
11 | CC1(C)O[C@@H]2[C@@H](CO[C@@]3(COS(N)(=O)=O)OC(C)(C)O[C@@H]23)O1 [PCM-0086260] | -15.6%
12 | CN(C)c1ccc(C(=C2C=CC(=[N+](C)C)C=C2)c2ccc(N(C)C)cc2)cc1 [PCM-0090111] | 116%

The remaining lines, values ahead:

Row | inhibition at 10 µM | Structure (SMILES)
13 | 7.7% | C[C@@H]1CC[C@]2(C(=O)O[C@@H]3O[C@H](CO)[C@@H](O)[C@H](O)[C@H]3O)CC[C@]3(C)C(=CC[C@@H]4[C@@]5(C)CC[C@H](O[C@@H]6OC[C@H](O)[C@H](O)[C@H]6O)C(C)(C)[C@@H]5CC[C@]43C)[C@@H]2[C@]1(C)O [PCM-0216435]
14 | 6.9% | COC(=O)C1=CO[C@@H](O[C@@H]2O[C@H](CO)[C@@H](O)[C@H](O)[C@H]2O)[C@H]2[C@@H]1C(=O)C[C@@H]2C [PCM-0216534]
15 | -17% | Cc1cc(C)nc(NC(=S)N2CCN(Cc3ccc(C(F)(F)F)cc3)CC2)c1 [PCM-0215867]
16 | -24.1% | OCCc1c[nH]c2ccccc12 [PCM-0215120]
17 | 74.1% | Cc1noc(C)c1-c1ccc(-c2cc(C(N)=O)c(NC(N)=O)s2)c(O[C@H]2CCNC2)c1 [PCM-0215541]
18 | 10.1% | C[C@@H](O[C@H]1OCCN(Cc2nn(P(=O)(O)O)c(=O)[nH]2)[C@H]1c1ccc(F)cc1)c1cc(C(F)(F)F)cc(C(F)(F)F)c1 [PCM-0214804]
19 | -21.8% | OC[C@H]1O[C@H](OC[C@H]2OC(O)[C@H](O)[C@@H](O)[C@@H]2O)[C@H](O)[C@@H](O)[C@H]1O (stereo partly shown) [PCM-0215071]
20 | -10.8% | CCCCCCCCC[C@H](O)CC(=O)CCc1ccc(O)c(OC)c1 [PCM-0216384]
21 | -0.7% | N#Cc1cnc(Nc2cc(NC[C@H]3CNCCO3)c(C(F)(F)F)cn2)cn1 [PCM-0214576]
22 | -0.9% | O=c1[nH]c([C@@H]2CCCN2)nc2c1oc1ccc(Cl)cc12 [PCM-0215335]
23 | -3.1% | COC(=O)C1=CO[C@@H](O[C@@H]2O[C@H](CO)[C@@H](O)[C@H](O)[C@H]2O)[C@@H]2[C@@H](C)CC(=O)[C@]12O [PCM-0216345]
24 | 100% | CC(C)=CCC/C(C)=C/Cc1c(O)c(CC=C(C)C)c2c(c1O)C(=O)C1=C[C@@H]3C[C@H]4C(C)(C)O[C@@](C/C=C(/C)C(=O)O)(C3=O)[C@@]14O2 [PCM-0216347]
25 | 59.5% | NCCOc1cc(C(=O)Nc2cc(OCCN)c3ccccc3n2)nc(C(=O)Nc2cc(OCCN)c3ccccc3n2)c1 [PCM-0215476]
26 | -10.8% | O=C(NO)c1cnc(NC2(c3ccccc3)CC2)nc1 [PCM-0215891]
27 | 0.8% | Cc1nc(N(C)C(=O)Cc2ccc(-c3ccccn3)cc2)sc1S(N)(=O)=O [PCM-0215334]
28 | 2.8% | C[C@H]1CC[C@@]2(O)C(C)(C)[C@@H]3CC[C@@]2(C)[C@H]1C3 [PCM-0215010]
